Test systems include A549; COLO 205; DLD-1; DU-145; EKVX; HL-60; LOX IMVI; MDA-MB-231; MDA-MB-435; NCI-H226; NCI-H23; NCI-H522; OVCAR-4; PC-3; SK-MEL-2; SN12C; SR; SW-620; MCF7; NCI/ADR-RES.
Common to all, as to experiment: DTP human tumour cell line panel, 48 h

Molecules are shown by their SMILES.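 Growth conditions: 96-well plates. Treatment: test compound, 48 hours, 5 concentrations. Analysis: linear interpolation between bracketing concentrations; unreached endpoints set to highest concentration. GI50 is the concentration that inhibits growth by half.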 The source made the active and inactive calls. Rule as the data show it: active = GI50 up to about 1.1 µM and inactive = higher.

`O=C(c1ccc(Cl)cc1)C1OC12C(=O)Nc1ccccc12` (stereo not drawn): the GI50 in the assay with A549 is 23.9 µM (inactive); with COLO 205, 2.86 µM (inactive); with DLD-1, 2.42 µM (inactive); in the assay on DU-145, 19.1 µM (inactive); in the assay with EKVX, 18.1 µM (inactive); in the assay on HL-60 it was 0.349 µM (active). Besides, the GI50 in the assay with LOX IMVI was 1.45 µM (inactive); with MDA-MB-231, 21 µM (inactive); in the assay on MDA-MB-435 it was 16.9 µM (inactive); with NCI-H226 it was 20.3 µM (inactive); with NCI-H23, 15.5 µM (inactive); with NCI-H522, 1.91 µM (inactive). Moreover, the GI50 is 19.1 µM (inactive) in the assay on OVCAR-4; 25.9 µM (inactive) in the assay with PC-3; 7.6 µM (inactive) with SK-MEL-2; 6.01 µM (inactive) in the assay with SN12C; 0.731 µM (active) with SR; 3.52 µM (inactive) in the assay on SW-620.
`CCCCN(Cc1ccccc1)/C(=N/C#N)N(Cc1ccccc1)Cc1ccccc1`: the GI50 was 13.4 µM (inactive) in the assay with A549; 15.7 µM (inactive) with COLO 205; 24.9 µM (inactive) in the assay on DLD-1; 34.7 µM (inactive) with DU-145; 31.3 µM (inactive) in the assay with EKVX; 36.6 µM (inactive) in the assay on HL-60. Besides, the GI50 in the assay with LOX IMVI is 10.9 µM (inactive); in the assay on MCF7, 16.1 µM (inactive); with MDA-MB-231, 18.7 µM (inactive); in the assay with MDA-MB-435, 15.7 µM (inactive); in the assay on NCI-H226, 23.1 µM (inactive); with NCI-H23, 11.3 µM (inactive). For the same compound, the GI50 with NCI-H522 was 7.26 µM (inactive); with NCI/ADR-RES it was 18.7 µM (inactive); in the assay with OVCAR-4 it was 15.8 µM (inactive); in the assay on PC-3 it was 6.71 µM (inactive); in the assay with SK-MEL-2, 13.1 µM (inactive); with SN12C it was 18.2 µM (inactive). Besides, the GI50 in the assay on SW-620 is 24.1 µM (inactive).
Regarding `Cc1ccc(C2(O)CC(c3ccc([N+](=O)[O-])o3)=NN2C(=O)COc2ccc(Cl)cc2)cc1` (stereo not drawn), the GI50 was 7.29 µM (inactive) with A549; 3.62 µM (inactive) in the assay on COLO 205; 3.23 µM (inactive) in the assay on DLD-1; 6.3 µM (inactive) in the assay with EKVX; 1.75 µM (inactive) with HL-60; 4.59 µM (inactive) with LOX IMVI. The GI50 in the assay on NCI-H226 was 17.1 µM (inactive); with NCI-H23, 5.2 µM (inactive); in the assay with NCI-H522, 9.04 µM (inactive); with OVCAR-4 it was 5.98 µM (inactive); with SK-MEL-2 it was 4.44 µM (inactive); in the assay on SN12C it was 5.18 µM (inactive). The GI50 with SR was 1.82 µM (inactive); in the assay with SW-620 it was 3.12 µM (inactive).
Consider `CCC/C(=N\NC(=S)N1CCN(c2ccccn2)CC1)c1ccccn1`, for which the GI50 in the assay on A549 is 0.118 µM (active); in the assay on COLO 205 it was 0.00508 µM (active); in the assay with DLD-1, < 0.001 µM (active); in the assay with DU-145 it was 1.13 µM (inactive); in the assay with EKVX, 0.00729 µM (active); in the assay with HL-60 it was < 0.001 µM (active). The concentration for 50% growth inhibition (GI50) in the assay with LOX IMVI is 0.0258 µM (active); in the assay on MCF7, 0.00457 µM (active); in the assay on MDA-MB-231, 0.0311 µM (active); in the assay on MDA-MB-435 it was 0.133 µM (active); with NCI-H226, 1.06 µM (active); in the assay on NCI-H23, 0.00881 µM (active). Also, the GI50 in the assay with NCI-H522 was 0.0413 µM (active); in the assay with OVCAR-4 it was 0.191 µM (active); in the assay on PC-3, 0.0152 µM (active); with SK-MEL-2 it was 0.115 µM (active); with SR, 0.00191 µM (active).

For orientation: GI50 means the concentration giving 50% growth inhibition.

The values are drawn from ChEMBL document CHEMBL1201862, “PubChem BioAssay data set” (2004).
